Structures can show the parent of a compound that is named as a salt. Where two headings read alike, the source gives them in different places.
Experiments:
[1] = Surface tension in aqueous solution (surfactant properties); format: physicochemical; conditions: with or without phosphate buffer
Method: This surfactant nature moreover proves to be as powerful in the presence as in the absence of a phosphate buffer and can be held as being partially responsible for a self-aggregation of dronedarone molecules in aqueous solution. In fact, this supramolecular organization in solution is due to the formation of dimers positioned head to tail and stacked in superimposed layers. These dimers, when they are administered by injection, lead to rupturing of the cell membrane and, consequently, to the appearance of inflammation at the injection site. Generally, these surfactant properties of dronedarone can be regarded as responsible for poor tolerance of the composition in which they are present.

[2] = Aqueous solubility of dronedarone hydrochloride; format: physicochemical
Text: As indicated above, the above β-cyclodextrin derivatives, when they are used in combination with an appropriate buffer, for example a phosphate buffer, in the compositions of the invention, make it possible in particular to increase the aqueous solubility of dronedarone or of its pharmaceutically acceptable salts.

[3] = test system: male rats; experiment: Local tolerance in animals (intravenous injection in caudal vein); format: in vivo; conditions: several days
Method: Tests were carried out for the purpose of evaluating the local tolerance of various aqueous compositions comprising dronedarone hydrochloride or only the corresponding vehicle as placebo.
To this end, a dose of one the aqueous compositions hereinbelow was administered daily for 5 days via the intravenous route to batches of 5 male rats. The injection was made in the caudal vein, preferably in the distal region, then in the median region and finally in the proximal region. The animals were then sacrificed on the 8th day and the tails were removed for the purpose of possible microscopic examination.

Structure (SMILES) | effect on surface tension [1] | solubility ([2]; aqueous medium, aqueous buffer, ambient temperature, pH=4.85, read-out: solubility in an aqueous medium) [µg/mL] | solubility ([2]; mono-sodium phosphate buffer (NaH2PO4), aqueous buffer, ambient temperature, pH range from 1.5 to 5, read-out: solubility in the presence of a mono-sodium phosphate buffer (NaH2PO4)) [µg/mL] | solubility in an aqueous medium ([2]; pH range from 1.5 to 5) | solubility in an aqueous medium ([2]; pH values of greater than 5.5) | solubility in the presence of a mono-sodium phosphate buffer (NaH2PO4) ([2]; pH=5.5) | solubility ([2]; phosphate buffer with hydroxypropyl-β-cyclodextrin, aqueous with cosolvent or surfactant or cyclodextrin, 100 mmolar phosphate buffer and 5% of hydroxypropyl-β-cyclodextrin, read-out: solubility) [µg/mL] | tolerance at the injection site ([3]; aqueous formulation 1.065 mg/ml dronedarone hydrochloride with hydroxypropyl-β-cyclodextrin) | local tolerance ([3]; aqueous formulation 1.065 mg/ml dronedarone hydrochloride with phosphate buffer)
CCCCc1oc2ccc(NS(C)(=O)=O)cc2c1C(=O)c1ccc(OCCCN(CCCC)CCCC)cc1 [dronedarone, 2-butyl-3-(4-[[3-(dibutylamino)propoxy]]benzoyl)-5-(methanesulphonamido)benzofuran] | marked decrease |  |  |  |  |  |  |  | 
CCCCc1oc2ccc(NS(C)(=O)=O)cc2c1C(=O)c1ccc(OCCCN(CCCC)CCCC)cc1 [dronedarone hydrochloride, 2-butyl-3-(4-[[3-(dibutylamino)propoxy]]benzoyl)-5-(methanesulphonamido)benzofuran] |  | 500 | 2000 to 2250 | virtually constant | virtually negligible | virtually zero | ~6500 | marked intolerance | poor local tolerance
